How the values were obtained:
[1] = system: Cap-dependent (eIF4A dependant) translation; test: CrPV assay, cap-dependent translation (firefly luciferase); format: cell-based; settings: 20 μM, 3 hours treatment, FIG. 12
From the text: FIG. 12—CrPV assay—Natural molecule targets eIF4A.
By using a well characterised luciferase based reporter assay it was further determined that this class of molecule functions as a protein synthesis inhibitor via targeting the helicase eIF4A.

[2] = system: breast cancer cells MDA-MB-231; test: Cell proliferation, MDA-MB-231; format: cell-based; settings: 96 hours, Formula II only
Description: Growth of MDA-MB-231 cell lines were slowed by the treatment with a compound of Formula II. Experiment represents 6 biological repetitions, Error=S.E.M.
(§1) Prior to treatment cells were cultured to an appropriate confluency in 96 well tissue culture plates (Fisher). Cells remained either supplemented with fresh media or treated with fresh media containing active or an equivalent volume of DMSO (vehicle control). Where used, Cisplatin™ was diluted to a stock concentration in Dimethylformamide (DMF), then handled as per the manufacturer's instructions. To determine relative cell viability, reagents WST-1 (Roche) or MTT (Sigma) were used as per the manufacturer's instructions and absorbance at 450 nm measured using a Victor plate reader (Perkin Elmer).

actin 5′UTR = test: 5′UTR firefly luciferase reporter assay, actin; format: cell-based, human; settings: Neuroblastoma cells; FIG. 3d
Description: The 5′UTRs of genes which negatively associate with the progression of Alzheimer's disease—amyloid precursor protein (APP) and beta secretases (BACE) are all inhibited by treatment with a compound of Formula II, whereas the equivalent reporter levels of housekeeping genes actin and thioredoxin (TXN) are not inhibited. […] Neuroblastoma cells were transfected 24 hours prior to treatment with a compound of Formula II. After treatment, cells were prepared as described in the materials and methods. Each experiment represents between 6 and 8 biological repetitions.
Experiments conducted using Firefly luciferase reporter plasmids containing the 5′ untranslated regions (UTRs) of the genes amyloid precursor protein (APP), thioredoxin (TXN) were conducted with reagents and materials described by Bottley et al, 2010. Experiments conducted using Firefly luciferase reporter plasmids containing the 5′ UTRs of the genes EGFR, BACE1 and Actin were conducted with reagents and materials described by Webb, 2012 (http://etheses.nottingham.ac.uk/2724/). […]
Cells were transfected using FuGene 6 (Roche) following the manufacturer's instructions. The activities of firefly and renilla luciferase in lysates prepared from transfected cells were measured using a commercially available Luciferase reporter assay system (Promega) and light emission was measured over a 10 sec interval using a TECAN luminometer. […]

[3] = system: SH-SY5Y neuroblastoma cancer cells; test: Cell proliferation, SH-SY5Y; format: cell-based; settings: 96 hours, plus 2.5 μM Cisplatin, higher doses (10 μg) of Formula II
[4] = system: A549 lung carcinoma cells; test: Cell proliferation, A549 (WST-1 / MTT); format: cell-based
Description: Cisplatin™ resistant A549 lung cancer cells were sensitised to treatment with a compound of Formula II in combination with 1 μM Cisplatin™—a complete kill is achieved at higher doses of a compound of Formula II.
Cells were treated with a range of doses of active for either 48 or 96 hrs. Each data point is representaive of at least 4 biological repetitions.
Cells were treated with either 2 μM Cisplatin™ alone, c. 1 μg active alone or c. 1 μg active in combination with 2 μM Cisplatin™. A WST-1 cell proliferation assay was performed 96 hrs after treatment. Experiment represents 4 independent biological repetitions.
A WST-1 cell proliferation assay was performed 72 hrs after treatment. Experiment represents 4 independent biological repetitions.
Cells were treated with either 2 μM or 10 μM Cisplatin™ alone, or 10 μg synthetic molecule Formula II in combination with 2 μM Cisplatin™. A WST-1 cell proliferation assay was performed 72 hrs after treatment. Experiment represents 4 independent biological repetitions. A 5-fold increase in the efficacy of Cisplatin™ is observed when treated in combination with the synthetic Formula II.
Cells were treated with either 2 μM, 5 μM or 10 μM Cisplatin™ alone, 50 μg synthetic acetyl derivative molecule or 30 μg in combination with 2 μM Cisplatin™. A WST-1 cell proliferation assay was performed 72 hrs after treatment. Experiment represents four independent biological repetitions. No effect was detected after treatment with 50 μg synthetic acetyl derivative, however an 8-fold increase in the efficacy of Cisplatin™ is observed when treated in combination with 30 μg synthetic acetyl derivative and […] Cisplatin™.
FIG. 11—Natural molecule plus cisplatin compared to Hippuristanol plus cisplatin. […] The ratio between anti-proliferative activity to chemo sensitizing activity is also equivalent.
FIG. 13—Dose curves of compounds 46, 99 and 123. […] Cells were treated with a range of doses of active for 96 hrs. Each data point is representative of at least 4 biological repetitions and error=s.e.m).
FIG. 14—Cisplatin™ combination experiments—Compounds 46, 99 and 123. […] Cells were treated with a range of doses of active in combination with a range of doses of Cisplatin™ for 96 hrs. Each data point is representative of at least 4 biological repetitions and error=s.e.m).
as §1

## CC/C=C\C/C=C\C/C=C\CCCCCCCC(=O)OC[C@H](COC1OC(CO)C(O)C(O)C1O)OC(=O)CCCCCCC/C=C\C/C=C\C/C=C\CC (stereo partly drawn) [Formula II, 1,2-dioctadecatienyl-3-O-β-D-galactosyl-sn-glycerol]
[1]
  cap dependant translation (firefly luciferase signal): selectively reduces the translation of the firefly luciferase gene
[1]; listed as Synthetic version of the natural molecule
  cap dependant translation (firefly luciferase signal): inhibited
[2]
  growth of MDA-MB-231 cells: slowed
Actin 5′UTR
  firefly luciferase reporter levels, actin 5′UTR: not inhibited
[3]
  kill of SH-SY5Y cells in combination with Cisplatin: complete kill
[4]; 10 μg synthetic Formula II plus 2 μM Cisplatin, WST-1, 72 hrs, FIG. 9b
  increase in the efficacy of Cisplatin: 5 fold
[4]; 96 hours, plus 1 μM Cisplatin, higher doses of Formula II
  kill of A549 cells in combination with Cisplatin: complete kill
[4]; alone, FIG. 11
  anti-proliferative activity on A549 cells: anti-proliferative
[4]; c. 1 μg active plus 2 μM Cisplatin, WST-1, 96 hrs, FIG. 7
  efficacy of Cisplatin on A549 cells in combination: significant increase in the efficacy
[4]; in combination with Cisplatin (2 μM), FIG. 11
  sensitizing effect to Cisplatin on A549 cells: equivalent to hippuristanol
[4]; range of doses, 48 or 96 hrs, WST-1 and MTT, compound purified from natural source, FIG. 6
  growth of A549 cells: inhibits the growth
[4]; synthetic Formula II, WST-1, 72 hrs, FIG. 9a
  A549 cell growth, synthetic molecule: inhibited by Formula II in a dose dependent manner
